Like-named read-outs stand apart in the source and are kept apart here.
Key:
[1] = molecular target: protein kinases (human kinome) (Homo sapiens, UniProt Q00534); type: cell-based; conditions: for logFC CDK6: CDK6 (Q00534), direction down; for logFC of CDK6 (Q00534): down
[2] = molecular target: T1, extended human kinome (kinase-like proteins) (Homo sapiens, UniProt P54886); experiment: Whole cell quantitative proteomics: extended kinome hits; conditions: Accession P54886
T1 sequence (P54886 1-795): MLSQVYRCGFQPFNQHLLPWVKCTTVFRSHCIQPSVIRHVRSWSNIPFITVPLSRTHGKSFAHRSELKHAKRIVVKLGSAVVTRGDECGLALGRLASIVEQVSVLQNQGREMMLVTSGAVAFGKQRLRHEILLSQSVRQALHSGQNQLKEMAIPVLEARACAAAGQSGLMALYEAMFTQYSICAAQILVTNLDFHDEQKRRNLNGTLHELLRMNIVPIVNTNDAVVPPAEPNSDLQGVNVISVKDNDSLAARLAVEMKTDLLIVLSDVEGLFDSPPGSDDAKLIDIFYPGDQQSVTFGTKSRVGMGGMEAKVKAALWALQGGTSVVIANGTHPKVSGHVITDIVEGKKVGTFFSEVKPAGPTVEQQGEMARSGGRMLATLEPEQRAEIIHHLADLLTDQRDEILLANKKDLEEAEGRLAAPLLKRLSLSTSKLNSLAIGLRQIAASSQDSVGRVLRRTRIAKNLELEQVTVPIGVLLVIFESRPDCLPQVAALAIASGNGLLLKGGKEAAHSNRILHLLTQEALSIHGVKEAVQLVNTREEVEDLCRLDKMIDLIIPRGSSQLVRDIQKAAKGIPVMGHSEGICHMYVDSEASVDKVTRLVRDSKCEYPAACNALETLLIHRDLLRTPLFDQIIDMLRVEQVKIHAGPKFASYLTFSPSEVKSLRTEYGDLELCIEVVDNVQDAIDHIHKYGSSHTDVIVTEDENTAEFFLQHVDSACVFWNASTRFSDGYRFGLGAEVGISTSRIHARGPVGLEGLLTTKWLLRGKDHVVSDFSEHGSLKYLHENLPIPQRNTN
Experimental: Whole cell multiplexed quantitative proteomics was employed to measure changes in abundance of the proteome in response to treatment with each of the kinase degrader molecules relative to DMSO (Table 1, Appendix I).
Cells were treated with DMSO (biological triplicate) or degrader at indicated dose and time and cells were harvested by centrifugation. […] Precipitated protein was resuspended in 4 M Urea, 50 mM HEPES pH 7.4, followed by dilution to 1 M urea with the addition of 200 mM EPPS, pH 8. Proteins were first digested with LysC (1:50: enzyme:protein) for 12 hours at room temperature. The LysC digestion was diluted to 0.5 M Urea with 200 mM EPPS pH 8 followed by digestion with trypsin (1:50; enzyme:protein) for 6 hours at 37° C. Tandem mass tag (TMT) reagents (Thermo Fisher Scientific) were dissolved in anhydrous acetonitrile (ACN) according to manufacturer's instructions. […] The 10, 11, or 16-plex labeling reactions were performed for 1.5 hours at room temperature and the reaction quenched by the addition of hydroxylamine to a final concentration of 0.3% for 15 minutes at room temperature. The sample channels were combined at a 1:1 ratio, desalted using C18 solid phase extraction cartridges (Waters®) and analyzed by LC-MS for channel ratio comparison. Samples were then combined using the adjusted volumes determined in the channel ratio analysis and dried down in a speed vacuum. The combined sample was then resuspended in 1% formic acid, and acidified (pH 2-3) before being subjected to desalting with C18 SPE (Sep-Pak®, Waters®). Samples were then offline fractionated into 96 fractions by high pH reverse-phase HPLC (Agilent® LC1260) through an aeris peptide xb-c18 column (Phenomenex®) with mobile phase A containing 5% acetonitrile and 10 mM NH4HCO3 in LC-MS grade H2O, and mobile phase B containing 90% acetonitrile and 10 mM NH4HCO3 in LC-MS grade H2O (both pH 8.0). The 96 resulting fractions were then pooled in a non-continuous manner into 24 fractions and desalted using C18 solid phase extraction plates (SOLA®, Thermo Fisher Scientific) followed by subsequent mass spectrometry analysis.
Data were collected using an Orbitrap Fusion™ Lumos™ mass spectrometer (Thermo Fisher Scientific, San Jose, CA, USA) coupled with a Proxeon EASY-nLC™ 1200 LC pump (Thermo Fisher Scientific) or an Orbitrap Eclipse™ Tribrid™ mass spectrometer (Thermo Fisher Scientific, San Jose, CA, USA) coupled with an UltiMate™ 3000 RSLCnano System. Peptides were separated on an EasySpray™ ES803a/ES803a.rev2 75 μm inner diameter microcapillary column (ThermoFisher Scientific).
Data dependent MS2 spectra were acquired in the ion trap with a normalized collision energy (NCE) set at 35%, AGC target set to 1.8×10^4 and a maximum injection time of 120 ms. MS3 scans were acquired in the Orbitrap with HCD collision energy set to 55%. AGC target set to 2×10^5, maximum injection time of 150 ms, resolution at 50,000 and with a maximum synchronous precursor selection (SPS) precursors set to 10.
Proteome Discoverer™ 2.1, 2.2 or 2.4 (Thermo Fisher Scientific) was used for .RAW file processing and controlling peptide and protein level false discovery rates, assembling proteins from peptides, and protein quantification from peptides.

[3] = molecular target: protein kinases (human kinome) (Homo sapiens, UniProt P53667); type: cell-based; conditions: LIMK1 (P53667-1)
[4] = direction down, experiment wp168

protein kinases (human kinome) (Homo sapiens, UniProt P53667), sequence (P53667 whole entry): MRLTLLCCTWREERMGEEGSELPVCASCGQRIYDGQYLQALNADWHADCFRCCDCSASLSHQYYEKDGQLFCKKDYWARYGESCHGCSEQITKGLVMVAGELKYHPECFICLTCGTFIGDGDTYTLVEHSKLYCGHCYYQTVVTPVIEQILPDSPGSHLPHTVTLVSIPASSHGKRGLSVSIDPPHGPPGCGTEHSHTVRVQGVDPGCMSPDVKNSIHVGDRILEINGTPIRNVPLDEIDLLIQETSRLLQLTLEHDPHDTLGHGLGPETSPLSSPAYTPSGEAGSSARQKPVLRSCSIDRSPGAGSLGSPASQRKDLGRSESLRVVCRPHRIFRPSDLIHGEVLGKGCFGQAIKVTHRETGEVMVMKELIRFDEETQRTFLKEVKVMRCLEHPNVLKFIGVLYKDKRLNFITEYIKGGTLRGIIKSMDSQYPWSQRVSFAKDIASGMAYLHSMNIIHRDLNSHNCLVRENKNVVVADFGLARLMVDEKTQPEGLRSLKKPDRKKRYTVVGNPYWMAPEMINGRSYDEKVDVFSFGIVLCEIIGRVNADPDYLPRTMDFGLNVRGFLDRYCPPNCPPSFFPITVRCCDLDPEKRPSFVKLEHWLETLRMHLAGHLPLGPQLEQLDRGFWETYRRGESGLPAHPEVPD
protein kinases (human kinome) (Homo sapiens, UniProt Q00534), sequence (Q00534 whole entry): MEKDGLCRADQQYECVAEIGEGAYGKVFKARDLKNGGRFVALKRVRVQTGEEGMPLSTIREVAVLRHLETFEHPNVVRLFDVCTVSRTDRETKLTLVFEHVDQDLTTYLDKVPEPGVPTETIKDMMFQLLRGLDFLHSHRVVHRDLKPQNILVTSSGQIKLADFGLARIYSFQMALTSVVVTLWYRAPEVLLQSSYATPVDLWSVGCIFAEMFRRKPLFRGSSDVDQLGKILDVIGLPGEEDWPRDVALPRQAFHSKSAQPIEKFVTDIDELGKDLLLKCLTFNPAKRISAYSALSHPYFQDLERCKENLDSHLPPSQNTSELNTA

CC(=O)c1c(C)c2cnc(Nc3ccc(N4CCN(CCOCCOCCOCCNC(=O)COc5cccc6c5C(=O)N(C5CCC(=O)NC5=O)C6=O)CC4)cn3)nc2n(C2CCCC2)c1=O (centres unmarked) [BSJ.03.123]
logFC CDK6 ([1]; experiment wp084): −3.058 | logFC of CDK6 (Q00534) ([1]; Experiment wp084): −3.058 | logFC ALDH18A1 ([2]; experiment wp084): −0.5282

CS(=O)(=O)Nc1cccc(-c2csc3cnc(Nc4ccc(N5CCN(CCCCCOc6cccc7c6C(=O)N(C6CCC(=O)NC6=O)C7=O)CC5)cc4)nc23)c1 (centres unmarked) [DB0614, N-(3-(2-((4-(4-(5-((2-(2,6-Dioxopiperidin-3-yl)-1,3-dioxoisoindolin-4-yl)oxy)pentyl)piperazin-1-yl)phenyl)amino)thieno[3,2-d]pyrimidin-7-yl)phenyl)methanesulfonamide]
logFC CDK6 ([1]; experiment wp045): −2.265 | logFC CDK6 ([1]; experiment wp117): −2.079 | logFC of CDK6 (Q00534) ([1]; Experiment wp045): −2.265 | logFC of CDK6 (Q00534) ([1]; Experiment wp117): −2.079

Cc1ccc(NC(=O)c2cccc(C(F)(F)F)c2)cc1N1Cc2cnc(Nc3ccc(N4CCN(Cc5cn(CCCCCOc6cccc7c6C(=O)N(C6CCC(=O)NC6=O)C7=O)nn5)CC4)nc3)nc2N(C)C1=O (centres unmarked) [DB0646, N-(3-(7-((6-(4-((1-(5-((2-(2,6-Dioxopiperidin-3-yl)-1,3-dioxoisoindolin-4-yl)oxy)pentyl)-1H-1,2,3-triazol-4-yl)methyl)piperazin-1-v)pyridin-3-yl)amino)-1-methyl-2-oxo-1,4-dihydropyrimido[4,5-d]pyrimidin-3(2H)-yl)-4-methylphenyl)-3-(trifluoromethyl)benzamide]
logFC LIMK1 ([3]; direction down, experiment wp045): −0.5293 | logFC LIMK1 ([3]; direction down, experiment wp103): −1.497 | logFC LIMK1 ([3]; direction down, experiment wp105): −0.5641 | logFC LIMK1 ([3]; direction down, experiment wp107): −0.9768 | logFC LIMK1 ([3]; direction down, experiment wp117): −1.412 | logFC LIMK1 ([3]; direction down, experiment wp160, 2 hr): −0.7376 | logFC LIMK1 ([3]; direction down, experiment wp160, 4 hr): −1.563 | logFC LIMK1 ([3]; direction down, experiment wp160, 8 hr): −2.36 | logFC LIMK1 ([3]; direction down, experiment wp172): −1.32 | logFC LIMK1 ([3]; experiment wp045, down): −0.5293 | logFC LIMK1 ([3]; experiment wp103, down): −1.497 | logFC LIMK1 ([3]; experiment wp105, down): −0.5641 | logFC LIMK1 ([3]; experiment wp107, down): −0.9768 | logFC LIMK1 ([3]; experiment wp117, down): −1.412 | logFC LIMK1 ([3]; experiment wp160, 2 hr, down): −0.7376 | logFC LIMK1 ([3]; experiment wp160, 4 hr, down): −1.563 | logFC LIMK1 ([3]; experiment wp160, 8 hr, down): −2.36 | logFC LIMK1 ([3]; experiment wp172, down): −1.32

Cc1ccc(NC(=O)c2cccc(C(F)(F)F)c2)cc1N1Cc2cnc(Nc3ccc(N4CCN(CCCOc5cccc6c5C(=O)N(C5CCC(=O)NC5=O)C6=O)CC4)nc3)nc2N(C)C1=O (centres unmarked) [DB0662]
logFC LIMK1 [3, 4]: −1.911 | logFC LIMK1 ([3]; experiment wp168, down): −1.911

Cc1ccc(NC(=O)c2cccc(C(F)(F)F)c2)cc1N1Cc2cnc(Nc3ccc(N4CCN(CCCCC(=O)N[C@H](C(=O)N5C[C@H](O)C[C@H]5C(=O)N[C@@H](C)c5ccc(-c6scnc6C)cc5)C(C)(C)C)CC4)nc3)nc2N(C)C1=O [DB1113]
logFC LIMK1 [3, 4]: −1.144 | logFC LIMK1 ([3]; experiment wp168, down): −1.144

Cc1ncsc1-c1ccc([C@H](C)NC(=O)[C@@H]2C[C@@H](O)CN2C(=O)[C@@H](NC(=O)CCOCCOCCN2CCN(c3ccc(Nc4ncc(Cl)c(Nc5ccccc5S(=O)(=O)C(C)C)n4)cc3)CC2)C(C)(C)C)cc1 [FMF.06.098.1]
logFC CDK6 ([1]; experiment wp108): −0.3588 | logFC CDK6 ([1]; experiment wp131): −0.5377 | logFC of CDK6 (Q00534) ([1]; Experiment wp108): −0.3588 | logFC of CDK6 (Q00534) ([1]; Experiment wp131): −0.5377

C[C@@H]1C[C@@H](O)c2ncnc(N3CCN(C(=O)[C@H](CNCCCCCCCCCCc4cccc5c4C(=O)N(C4CCC(=O)NC4=O)C5=O)c4ccc(Cl)cc4)CC3)c21 (some centres unmarked) [INY.03.041.01]
logFC ALDH18A1 ([2]; experiment wp118): −0.376

Cc1cnc(Nc2ccc(N3CCN(CCOCCOCCNC(=O)COc4cccc5c4C(=O)N(C4CCC(=O)NC4=O)C5=O)CC3)cc2)nc1Nc1cccc(S(=O)(=O)NC(C)(C)C)c1 (centres unmarked) [JWG.118]
logFC ALDH18A1 ([2]; experiment wp071): −0.4227

CS(=O)(=O)Nc1cccc(-c2csc3cnc(Nc4ccc(N5CCN(CCOCCOCCOc6cccc7c6C(=O)N(C6CCC(=O)NC6=O)C7=O)CC5)cc4)nc23)c1 (centres unmarked) [RSS0628]
logFC CDK6 ([1]; experiment wp045): −1.743 | logFC of CDK6 (Q00534) ([1]; Experiment wp045): −1.743

Cc1ncsc1-c1ccc([C@H](C)NC(=O)[C@@H]2C[C@@H](O)CN2C(=O)[C@@H](NC(=O)CCCCCN2CCN(c3ccc(Nc4ncc5scc(-c6cccc(NS(C)(=O)=O)c6)c5n4)cc3)CC2)C(C)(C)C)cc1 [RSS0680, (2S,4R)-1-((S)-3,3-Dimethyl-2-(6-(4-(4-((7-(3-(methylsulfonamido)phenyl)thieno[3,2-d]pyrimidin-2-yl)amino)phenyl)piperazin-1-yl)hexanamido)butanoyl)-4-hydroxy-N—((S)-1-(4-(4-methylthiazol-5yl)phenyl)ethyl)pyrrolidine-2-carboxamide]
logFC CDK6 ([1]; experiment wp080): −2.17 | logFC CDK6 ([1]; experiment wp117): −2.169 | logFC of CDK6 (Q00534) ([1]; Experiment wp080): −2.17 | logFC of CDK6 (Q00534) ([1]; Experiment wp117): −2.169

Nc1ncnc2c1c(-c1ccc(Oc3ccccc3)cc1)nn2[C@H]1CC[C@H](N2CCN(CCOCCNC(=O)CNc3cccc4c3C(=O)N(C3CCC(=O)NC3=O)C4=O)CC2)CC1 (some centres unmarked) [SB1.G.181]
logFC LIMK1 ([3]; direction down, experiment wp071): −0.686 | logFC LIMK1 ([3]; experiment wp071, down): −0.686

Cc1ccc(C(=O)Nc2ccc(CN3CCN(CCCOCCOCCOCCNC(=O)COc4cccc5c4C(=O)N(C4CCC(=O)NC4=O)C5=O)CC3)c(C(F)(F)F)c2)cc1C#Cc1cnc2cccnn12 (centres unmarked) [SB1.G.187]
logFC CDK6 ([1]; experiment wp103): −0.346 | logFC of CDK6 (Q00534) ([1]; Experiment wp103): −0.346 | logFC ALDH18A1 ([2]; experiment wp056): −0.4458

CC(C)S(=O)(=O)c1ccccc1Nc1nc(Nc2ccc(N3CCN(CCOCCNC(=O)CNc4ccc5c(c4)C(=O)N(C4CCC(=O)NC4=O)C5=O)CC3)cc2)ncc1Cl (centres unmarked) [SK.3.93]
logFC CDK6 ([1]; experiment wp016): −0.8585 | logFC of CDK6 (Q00534) ([1]; Experiment wp016): −0.8585

CC(C)S(=O)(=O)c1ccccc1Nc1nc(Nc2ccc(N3CCN(CCOCCOCCC(=O)NCCNc4cccc5c4CN(C4CCC(=O)NC4=O)C5=O)CC3)cc2)ncc1Cl (centres unmarked) [TL13.97]
logFC LIMK1 ([3]; direction down, experiment wp137): −1.173 | logFC LIMK1 ([3]; experiment wp137, down): −1.173 | logFC CDK6 ([1]; experiment wp137): −0.5967 | logFC of CDK6 (Q00534) ([1]; Experiment wp137): −0.5967

C=CCn1c(=O)c2cnc(Nc3ccc(N4CCN(CCCNc5cccc6c5C(=O)N(C5CCC(=O)NC5=O)C6=O)CC4)cc3)nc2n1-c1cccc(C(C)(C)O)n1 (centres unmarked) [ZNL.02.096]
logFC ALDH18A1 ([2]; experiment wp118): −0.4405

From patent US20240269139A1, “COMPOUNDS FOR TARGETED PROTEIN DEGRADATION OF KINASES” (DANA-FARBER CANCER INSTITUTE, INC., priority 2020, published 2024)
